Publication PMC5108039, “Functional and Structural Characterization of a Novel HLA-DRB1*04:01-Restricted α-Enolase T Cell Epitope in Rheumatoid Arthritis” (Frontiers in Immunology, 2016)
Square brackets hold non-standard residues; d marks the D form. Peptide text beside a SMILES is read from it. Cit = NC(=O)NCCC[C@H](N)C(=O)O

What was measured:
HLA-DRB1*04:04 = HLA-DRB1*04:04 (Homo sapiens, UniProt P01903+P01911, A100R/A169T/F76Y/I96L/K127E/L162R/M171V/N62H/P40V/Q125Y/R42H/S133A/S149N/S66Y/V209L/W38E); assay: Competition peptide-binding assay, HLA-DRB1*04:04; settings: competition with 0.02 μM biotinylated GAD65 270–285, plate-bound HLA-DRB1*04:04, increasing peptide concentrations; read-out: IC50 *04:04
Method: Stepwise binding analysis of 15-mer peptides derived from both native and citrullinated α-enolase to HLA-DRB1*01, *04:01, and *04:04 was performed using the ProImmune Class II Reveal assay (ProImmune, Oxford, UK). Relevant peptides were thereafter synthesized by GenScript (Piscataway, NJ, USA) and used for competition peptide-binding assays. […] Finally, peptide-binding affinity to the three different HLA alleles was assessed in direct binding assays in which N-terminally biotinylated epitopes (GenScript, Piscataway, NJ, USA) were incubated at concentrations from 5 to 0.05 μM with plate-bound relevant HLA-DRB1 molecules in the absence of a competitor peptide ([22]). The inflection point of the binding curve of a known binding epitope was used as a cutoff to separate weakly binding epitopes from background. […]

HLA-DRB1*01:01 = HLA-DRB1*01:01 (Homo sapiens, UniProt P01903+P01911, A100R/D57E/F55L/F60I/F76Y/I96L/L162R/M171V/P40L/Q125E/R42F/V115G/Y59C); assay: Competition peptide-binding assay, HLA-DRB1*01:01; settings: competition with 0.02 μM biotinylated HA306–318, plate-bound HLA-DRB1*01:01, increasing peptide concentrations; read-out: IC50 *01:01
Method: Stepwise binding analysis of 15-mer peptides derived from both native and citrullinated α-enolase to HLA-DRB1*01, *04:01, and *04:04 was performed using the ProImmune Class II Reveal assay (ProImmune, Oxford, UK). Relevant peptides were thereafter synthesized by GenScript (Piscataway, NJ, USA) and used for competition peptide-binding assays. […] Finally, peptide-binding affinity to the three different HLA alleles was assessed in direct binding assays in which N-terminally biotinylated epitopes (GenScript, Piscataway, NJ, USA) were incubated at concentrations from 5 to 0.05 μM with plate-bound relevant HLA-DRB1 molecules in the absence of a competitor peptide ([22]). The inflection point of the binding curve of a known binding epitope was used as a cutoff to separate weakly binding epitopes from background.
We decided to make use of HLA-DRB1*01:01 as a representative model for HLA-DRB1*01.

[1] = tested on: cultured PBMCs from RA patients; assay: Bead-based multiplex cytokine assay in culture supernatants; type: cell-based, human; settings: supernatants of cultured PBMCs, day 5, Luminex panel IL-10, IL-13, IL-17A, IL-17F, TNF-α, IFN-γ
Method: A bead-based multiplex cytokine assay was custom-designed by Invitrogen for simultaneous detection of IL-10, IL-13, IL-17A, IL-17F, TNF-α, and IFN-γ on a Luminex platform. Supernatants were collected at day 5 and stored at −80°C until used. Supernatants from RA patients were analyzed using the Luminex 100 system according to the manufacturer’s instructions.

HLA-DRB1*04:01 = HLA-DRB1*04:01 (Homo sapiens, UniProt P01903+P01911, A100K/A169T/F76Y/I96L/K127E/L162R/M171V/N62H/P40V/Q125Y/R42H/S133A/S149N/S66Y/V115G/V209L/W38E); assay: biochemical
Method: The HLA-DR binding capacity of the identified peptides was assessed through in vitro competition binding assays in which native and citrullinated candidate epitopes were tested for their capacity to displace an established reference peptide (Figure 2; Table 2).

Structure (SMILES): CC[C@H](C)[C@H](NC(=O)[C@H](Cc1c[nH]cn1)NC(=O)[C@H](CCC(=O)O)NC(=O)[C@@H](NC(=O)[C@H](C)NC(=O)[C@H](CCCCN)NC(=O)[C@H](CO)NC(=O)[C@@H](NC(=O)CNC(=O)[C@H](CCCCN)NC(=O)CNC(=O)[C@H](CCSC)NC(=O)[C@H](Cc1ccc(O)cc1)NC(=O)[C@@H](N)CCCNC(N)=O)C(C)C)C(C)C)C(=O)N[C@@H](CC(N)=O)C(=O)O [cit56] (H-[Cit]YMGKGVSKAVEHIN-OH; N-terminus and C-terminus assumed)
- IC50 (HLA-DRB1*04:04): > 50 µM
- IC50 (HLA-DRB1*01:01): > 50 µM
- cytokine response in supernatants compared to the native peptide form [1]: strong responses

Structure (SMILES): CC[C@H](C)[C@H](NC(=O)[C@@H](N)C(C)C)C(=O)NCC(=O)N[C@@H](CCSC)C(=O)N[C@@H](CC(=O)O)C(=O)N[C@H](C(=O)N[C@@H](C)C(=O)N[C@@H](C)C(=O)N[C@@H](CO)C(=O)N[C@@H](CCC(=O)O)C(=O)N[C@@H](Cc1ccccc1)C(=O)N[C@@H](Cc1ccccc1)C(=O)N[C@@H](CCCNC(N)=O)C(=O)N[C@@H](CO)C(=O)NCC(=O)O)C(C)C [cit241] (H-VIGMDVAASEFF[Cit]SG-OH)
- IC50 (HLA-DRB1*04:04): 0.2 µM
- IC50 (HLA-DRB1*01:01): 42 µM
- IC50 (HLA-DRB1*04:01): 2.5 µM

Structure (SMILES): CC(C)C[C@H](NC(=O)CNC(=O)[C@H](CCCCN)NC(=O)[C@H](CO)NC(=O)[C@@H](N)[C@@H](C)O)C(=O)N[C@@H](Cc1ccccc1)C(=O)N[C@@H](CCCNC(N)=O)C(=O)N[C@@H](C)C(=O)N[C@@H](C)C(=O)N[C@H](C(=O)N1CCC[C@H]1C(=O)N[C@@H](CO)C(=O)NCC(=O)N[C@@H](C)C(=O)N[C@@H](CO)C(=O)O)C(C)C [cit26] (H-TSKGLF[Cit]AAVPSGAS-OH)
- IC50 (HLA-DRB1*04:04): 0.5 µM
- IC50 (HLA-DRB1*01:01): 1.9 µM
- IC50 (HLA-DRB1*04:01): 1.5 µM

Structure (SMILES): CC[C@H](C)[C@H](NC(=O)[C@H](CCCCN)NC(=O)[C@H](CC(C)C)NC(=O)[C@@H](NC(=O)[C@H](CO)NC(=O)[C@@H](N)CCSC)[C@@H](C)CC)C(=O)N[C@@H](Cc1c[nH]cn1)C(=O)N[C@@H](C)C(=O)N[C@@H](CCCNC(=N)N)C(=O)N[C@@H](CCC(=O)O)C(=O)N[C@H](C(=O)N[C@@H](Cc1ccccc1)C(=O)N[C@@H](CC(=O)O)C(=O)N[C@@H](CO)C(=O)N[C@@H](CCCNC(=N)N)C(=O)O)[C@@H](C)CC [peptide 1] (H-MSILKIHAREIFDSR-OH)
- IC50 (HLA-DRB1*04:04): > 50 µM
- IC50 (HLA-DRB1*01:01): 3.5 µM
- IC50 (HLA-DRB1*04:01): > 50 µM
